Measurements reported in PubChem BioAssay AID330 (DTP/NCI, 2004).
Several values for one entry are separate records, joined by “and”; a condition that tells them apart may be missing. Identical values can stand only once. Inconclusive results and toxic doses are left out. How the source made its calls: active means survival T/C of 150% or more; inactive means T/C below 125% in these data.

System: P388 leukemia ip, CD2F1 mice, survival T/C
Assay: NCI In Vivo Anticancer Drug Screen. Data for tumor model P388 Leukemia (intraperitoneal) in CD2F1 (CDF1) mice
Settings: endpoint: median survival time, higher = longer survival
How it was run: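 Mice carrying the transplanted tumor received test compound or vehicle. Survival was recorded in each group, and the value is the treated-group measurement divided by that of the vehicle-treated control group.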

[1] = dose: 50.0 mg/kg/injection, schedule: Q01DX005 (ip), vehicle: saline with Tween-80
[2] = dose: 100.0 mg/kg/injection, schedule: Q01DX005 (ip), vehicle: saline with Tween-80
[3] = dose: 200.0 mg/kg/injection, schedule: Q01DX005 (ip), vehicle: saline with Tween-80
[4] = dose: 100.0 mg/kg/injection, schedule: Q04DX003 (ip), vehicle: Klucel (hydroxypropylcellulose) (HPC)
[5] = dose: 200.0 mg/kg/injection, schedule: Q04DX003 (ip), vehicle: Klucel (hydroxypropylcellulose) (HPC)
[6] = dose: 400.0 mg/kg/injection, schedule: Q04DX003 (ip), vehicle: Klucel (hydroxypropylcellulose) (HPC)
[7] = dose: 50.0 mg/kg/injection, schedule: Q01DX009 (ip), vehicle: saline with Tween-80
[8] = dose: 100.0 mg/kg/injection, schedule: Q01DX009 (ip), vehicle: saline with Tween-80
[9] = dose: 100.0 mg/kg/injection, schedule: Q04DX003 (ip), vehicle: saline with Tween-80
[10] = dose: 200.0 mg/kg/injection, schedule: Q01DX009 (ip), vehicle: saline with Tween-80
[11] = dose: 200.0 mg/kg/injection, schedule: Q04DX003 (ip), vehicle: saline with Tween-80
[12] = dose: 50.0 mg/kg/injection, schedule: Q01DX005 (ip), vehicle: Klucel (hydroxypropylcellulose) (HPC)
[13] = dose: 12.5 mg/kg/injection, schedule: Q01DX005 (ip), vehicle: Klucel (hydroxypropylcellulose) (HPC)
[14] = dose: 25.0 mg/kg/injection, schedule: Q01DX005 (ip), vehicle: Klucel (hydroxypropylcellulose) (HPC)
[15] = dose: 50.0 mg/kg/injection, schedule: Q01DX009 (ip), vehicle: saline
[16] = dose: 100.0 mg/kg/injection, schedule: Q01DX009 (ip), vehicle: saline
[17] = dose: 200.0 mg/kg/injection, schedule: Q01DX009 (ip), vehicle: saline
[18] = dose: 60.0 mg/kg/injection, schedule: Q01DX005 (ip), vehicle: saline with Tween-80
[19] = dose: 120.0 mg/kg/injection, schedule: Q01DX005 (ip), vehicle: saline with Tween-80
[20] = dose: 240.0 mg/kg/injection, schedule: Q01DX005 (ip), vehicle: saline with Tween-80
[21] = dose: 400.0 mg/kg/injection, schedule: Q04DX003 (ip), vehicle: saline with Tween-80

Measured: T/C

CC1=NN(C(=O)NS(=O)(=O)c2ccc(CCNC(=O)c3nccnc3N)cc2)CC1
inactive: [1] 96 % of control | [2] 105 % of control | [3] 105 % of control

Fc1ccc(CN2COc3c(ccc4cccnc34)C2)cc1
inactive: [4] 96 % of control | [5] 97 % of control | [6] 94 % of control

CCCCC(CC)CO.[Ti] (stereo not drawn)
inactive: [7] 90 % of control | dose: 50.0 mg/kg/injection, schedule: Q04DX003 (ip), vehicle: saline with Tween-80 100 % of control | [8] 109 % of control | [9] 100 % of control | [10] 100 % of control | [11] 100 % of control

O=C1CCC(O)N1CN1C(=O)CCC1O (stereo not drawn)
inactive: dose: 60.0 mg/kg/injection, schedule: Q01DX005 (ip), vehicle: saline 100 % of control | dose: 120.0 mg/kg/injection, schedule: Q01DX005 (ip), vehicle: saline 108 % of control | dose: 240.0 mg/kg/injection, schedule: Q01DX005 (ip), vehicle: saline 100 % of control

COC(=O)c1c(C(=O)OC)c(-c2ccc(Cl)c(Cl)c2)n2c1CCC2
inactive: [8] 87 % of control | [10] 89 % of control | dose: 400.0 mg/kg/injection, schedule: Q01DX009 (ip), vehicle: saline with Tween-80 88 % of control

O=C1C(=O)N(c2ccccc2)[C@@]2(c3ccccc3)C(=Nc3ccccc3)OC(c3ccccc3)=C12
inactive: dose: 60.0 mg/kg/injection, schedule: Q01DX005 (ip), vehicle: Klucel (hydroxypropylcellulose) (HPC) 90 % of control | dose: 120.0 mg/kg/injection, schedule: Q01DX005 (ip), vehicle: Klucel (hydroxypropylcellulose) (HPC) 90 % of control | dose: 240.0 mg/kg/injection, schedule: Q01DX005 (ip), vehicle: Klucel (hydroxypropylcellulose) (HPC) 88 % of control

CCc1nc(N)nc(N)c1-c1ccc2nnn(O)c2c1
inactive: [12] 98 % of control | dose: 100.0 mg/kg/injection, schedule: Q01DX005 (ip), vehicle: Klucel (hydroxypropylcellulose) (HPC) 96 % of control | dose: 200.0 mg/kg/injection, schedule: Q01DX005 (ip), vehicle: Klucel (hydroxypropylcellulose) (HPC) 105 % of control

COc1ccc2cc3cnccc3cc2c1OC
inactive: dose: 12.5 mg/kg/injection, schedule: Q01DX009 (ip), vehicle: water 99 % of control | dose: 25.0 mg/kg/injection, schedule: Q01DX009 (ip), vehicle: water 97 % of control | dose: 50.0 mg/kg/injection, schedule: Q01DX009 (ip), vehicle: water 94 % of control | dose: 100.0 mg/kg/injection, schedule: Q01DX009 (ip), vehicle: water 102 % of control | dose: 200.0 mg/kg/injection, schedule: Q01DX009 (ip), vehicle: water 96 % of control

CCC/C=C(\CC)COC(=O)Nc1ccccc1
inactive: [1] 86 % of control | [2] 100 % of control

Cc1c2ccncc2c(O)c2c3ccccc3n(C)c12
inactive: [13] 108 % of control | [14] 110 % of control | [12] 108 % of control

CCOC12NC(=O)N(C)C1(OCC)C(=O)N(C)C(=O)N2C (stereo not drawn)
inactive: [7] 91 % of control | [8] 92 % of control | [10] 88 % of control

S=P1(c2ccccc2)C=C(N2CCCC2)CC1 (stereo not drawn)
inactive: dose: 12.5 mg/kg/injection, schedule: Q01DX009 (ip), vehicle: saline 109 % of control | dose: 25.0 mg/kg/injection, schedule: Q01DX009 (ip), vehicle: saline 110 % of control | [15] 112 % of control | [16] 104 % of control | [17] 96 % of control

Cc1cc(O)c([N+](=O)[O-])c(O)c1
inactive: [15] 96 % of control | [16] 103 % of control | [17] 100 % of control

CSC(SC)(SC)c1cc(C)no1
inactive: [18] 111 % of control | [19] 102 % of control | [20] 104 % of control

O=c1c2ccccc2[nH]c2c(O)c3c(=O)c4ccccc4[nH]c3cc12
inactive: [4] 102 % of control | [5] 92 % of control | [6] 102 % of control

Cn1c(=O)c2c(ncn2CCSc2ncnc3nc[nH]c23)n(C)c1=O
inactive: [15] 97 % of control | [16] 105 % of control | [17] 114 % of control

CCC1CN2CCC1CC2C(O)c1ccnc2ccc(OC)cc12 (stereo not drawn)
inactive: [1] 100 % of control | [2] 98 % of control

COc1cc(NC(=O)OCc2cccnc2)cc(OC)c1OC
inactive: [1] 98 % of control | [2] 98 % of control | [3] 93 % of control

CCOc1ccc(-n2cnc3c(=O)[nH]c(N)nc32)cc1
inactive: dose: 15.0 mg/kg/injection, schedule: Q01DX005 (ip), vehicle: saline with Tween-80 90 % of control | dose: 30.0 mg/kg/injection, schedule: Q01DX005 (ip), vehicle: saline with Tween-80 91 % of control | [18] 86 % of control and 90 % of control | [20] 102 % of control

CC1/C(=N/O)C(=O)c2ccccc21 (stereo not drawn)
inactive: dose: 12.5 mg/kg/injection, schedule: Q01DX009 (ip), vehicle: saline with Tween-80 100 % of control | dose: 25.0 mg/kg/injection, schedule: Q01DX009 (ip), vehicle: saline with Tween-80 95 % of control | [7] 100 % of control

CC(=O)NC(CSC(c1ccccc1)c1ccccc1)C(C)=O (stereo not drawn)
inactive: [9] 103 % of control | [11] 106 % of control | [21] 113 % of control

C=CCOc1cc2c(cc1C(C)c1ccc(OCC)c(C)c1)OCO2 (stereo not drawn)
inactive: [1] 106 % of control | [2] 103 % of control | [3] 106 % of control

O=C(c1ccccc1)N1CCCSC1=S
inactive: [18] 101 % of control | [19] 105 % of control | [20] 104 % of control

CCN(CC)CCN(C(=O)C1c2ccccc2Oc2ccccc21)c1ccccc1
inactive: [13] 106 % of control | [14] 100 % of control | [12] 100 % of control and 94 % of control

CC(N=[N+]=[N-])n1nnnc1-c1ccccc1 (stereo not drawn)
inactive: dose: 25.0 mg/kg/injection, schedule: Q01DX001 (ip), vehicle: Klucel (hydroxypropylcellulose) (HPC) 101 % of control | dose: 50.0 mg/kg/injection, schedule: Q01DX001 (ip), vehicle: Klucel (hydroxypropylcellulose) (HPC) 121 % of control | dose: 100.0 mg/kg/injection, schedule: Q01DX001 (ip), vehicle: Klucel (hydroxypropylcellulose) (HPC) 113 % of control and 120 % of control | dose: 200.0 mg/kg/injection, schedule: Q01DX001 (ip), vehicle: Klucel (hydroxypropylcellulose) (HPC) 91 % of control

C=C1C(=O)OC2/C=C(\C)CC(O)/C=C(/CO)CC(OC(=O)/C(C)=C/C)C12 (stereo not drawn)
inactive: dose: 7.5 mg/kg/injection, schedule: Q01DX009 (ip), vehicle: saline + alcohol 111 % of control | dose: 10.0 mg/kg/injection, schedule: Q01DX009 (ip), vehicle: saline + alcohol 121 % of control

Cc1nc2c([N+](=O)[O-])c(NCCO)c([N+](=O)[O-])cc2[nH]1
inactive: [9] 94 % of control | [11] 92 % of control | [21] 103 % of control

Cc1nccc2nnc(C)n12
inactive: dose: 100.0 mg/kg/injection, schedule: Q04DX003 (ip), vehicle: saline 98 % of control | dose: 200.0 mg/kg/injection, schedule: Q04DX003 (ip), vehicle: saline 98 % of control | dose: 400.0 mg/kg/injection, schedule: Q04DX003 (ip), vehicle: saline 95 % of control

CCOP(=O)(OCC)OC(C)CC1CO1 (stereo not drawn)
inactive: dose: 100.0 mg/kg/injection, schedule: Q04DX002 (ip), vehicle: saline 100 % of control | dose: 200.0 mg/kg/injection, schedule: Q04DX002 (ip), vehicle: saline 98 % of control | dose: 400.0 mg/kg/injection, schedule: Q04DX002 (ip), vehicle: saline 103 % of control
